Assay: xn = mol fraction of the nth substance listed
Settings: 101 kPa, Liquid; for viscosity: Capillary tube (Ostwald / Ubbelohde) method; for mass density: Pycnometric method

CC1OC(C)OC(C)O1 (stereo unspecified) [2,4,6-trimethyl-1,3,5-trioxane] + CCOC(C)=O
Settings | mass density, 298.15 K [kg/m3] | mass density, 303.15 K [kg/m3] | mass density, 308.15 K [kg/m3] | viscosity, 298.15 K [mPa·s] | viscosity, 303.15 K [mPa·s] | viscosity, 308.15 K [mPa·s]
x1 = 0.0203 | 896.3 | 890 | 883.7 | 0.435 | 0.405 | 0.392
x1 = 0.04 | 898.7 | 892.4 | 886 | 0.439 | 0.411 | 0.395
x1 = 0.0601 | 901.1 | 894.8 | 888.5 | 0.446 | 0.419 | 0.4
x1 = 0.0799 | 903.5 | 897.2 | 890.8 | 0.451 | 0.421 | 0.407
x1 = 0.1002 | 905.8 | 899.6 | 893.2 | 0.457 | 0.428 | 0.412
x1 = 0.1957 | 916.6 | 910.4 | 904 | 0.491 | 0.455 | 0.439
x1 = 0.3 | 927.8 | 921.6 | 915.2 | 0.53 | 0.492 | 0.468
x1 = 0.4 | 937.9 | 931.8 | 925.4 | 0.567 | 0.53 | 0.503
x1 = 0.5001 | 947.4 | 941.3 | 935 | 0.61 | 0.574 | 0.539
x1 = 0.6001 | 956.4 | 950.4 | 944.1 | 0.663 | 0.628 | 0.586
x1 = 0.7 | 965 | 959 | 952.7 | 0.739 | 0.691 | 0.639
x1 = 0.8001 | 973.1 | 967.3 | 960.9 | 0.832 | 0.766 | 0.708
x1 = 0.9 | 980.9 | 975.1 | 968.8 | 0.947 | 0.861 | 0.789
x1 = 1 | 988.4 | 982.6 | 976.4 | 1.107 | 1.001 | 0.907

CC1OC(C)OC(C)O1 (stereo unspecified) [2,4,6-trimethyl-1,3,5-trioxane] + COC(C)=O
Settings | mass density, 298.15 K [kg/m3] | mass density, 303.15 K [kg/m3] | mass density, 308.15 K [kg/m3] | viscosity, 298.15 K [mPa·s] | viscosity, 303.15 K [mPa·s] | viscosity, 308.15 K [mPa·s]
x1 = 0.0203 | 928.4 | 921.5 | 918 | 0.378 | 0.359 | 0.345
x1 = 0.0405 | 930.1 | 923.3 | 919.7 | 0.388 | 0.367 | 0.35
x1 = 0.0601 | 931.8 | 925 | 921.4 | 0.398 | 0.373 | 0.355
x1 = 0.0807 | 933.4 | 926.7 | 923.1 | 0.408 | 0.38 | 0.359
x1 = 0.1002 | 935 | 928.4 | 924.7 | 0.416 | 0.386 | 0.362
x1 = 0.201 | 942.9 | 936.6 | 932.6 | 0.455 | 0.41 | 0.372
x1 = 0.3009 | 950.3 | 944.2 | 939.8 | 0.489 | 0.429 | 0.374
x1 = 0.397 | 956.9 | 951 | 946.3 | 0.522 | 0.45 | 0.377
x1 = 0.5001 | 963.5 | 957.7 | 952.7 | 0.566 | 0.481 | 0.39
x1 = 0.7002 | 974.8 | 969.1 | 963.5 | 0.696 | 0.593 | 0.479
x1 = 0.8005 | 979.8 | 974 | 968.2 | 0.795 | 0.688 | 0.57
x1 = 0.9001 | 984.3 | 978.5 | 972.5 | 0.925 | 0.816 | 0.704
x1 = 1 | 988.4 | 982.6 | 976.4 | 1.107 | 1.001 | 0.907

CC1OC(C)OC(C)O1 (stereo unspecified) [2,4,6-trimethyl-1,3,5-trioxane] + CCCCOC(C)=O
Settings | mass density, 298.15 K [kg/m3] | mass density, 303.15 K [kg/m3] | mass density, 308.15 K [kg/m3] | viscosity, 298.15 K [mPa·s] | viscosity, 303.15 K [mPa·s] | viscosity, 308.15 K [mPa·s]
x1 = 0.0186 | 878.3 | 873.2 | 868.2 | 0.688 | 0.637 | 0.581
x1 = 0.0368 | 880.3 | 875.1 | 870.1 | 0.693 | 0.641 | 0.586
x1 = 0.0556 | 882.3 | 877.1 | 872 | 0.696 | 0.646 | 0.588
x1 = 0.0744 | 884.3 | 879.1 | 874 | 0.697 | 0.65 | 0.592
x1 = 0.093 | 886.3 | 881 | 875.9 | 0.699 | 0.653 | 0.594
x1 = 0.1873 | 896.5 | 891.1 | 885.7 | 0.713 | 0.668 | 0.612
x1 = 0.2831 | 906.9 | 901.4 | 895.9 | 0.728 | 0.685 | 0.629
x1 = 0.3807 | 917.7 | 912 | 906.4 | 0.755 | 0.706 | 0.649
x1 = 0.4799 | 928.6 | 922.9 | 917.2 | 0.786 | 0.735 | 0.676
x1 = 0.5802 | 939.8 | 934.1 | 928.2 | 0.831 | 0.771 | 0.708
x1 = 0.6828 | 951.5 | 945.7 | 939.7 | 0.882 | 0.816 | 0.746
x1 = 0.7863 | 963.2 | 957.6 | 951.4 | 0.945 | 0.867 | 0.793
x1 = 0.8924 | 975.6 | 969.9 | 963.7 | 1.025 | 0.933 | 0.848
x1 = 1 | 988.4 | 982.6 | 976.4 | 1.107 | 1.001 | 0.907
